Test results taken from US11965159B2, “Compositions and methods for regulating proteins and nucleic acids activities” (THE BROAD INSTITUTE, INC., priority 2019, dated 2024).

How the values were obtained:
dCas9 = assay: dCas9-based transcriptional activation of HBG1 gene in HEK293FT cells (RT-qPCR); format: cell-based; conditions: for inhibition of the HBG1 transcriptional activation: 48 hours
Protocol: Transcription activation experiments and quantitative RT-PCR analyses. For transcription activation experiments 250,000 cells/well were plated in a 12 well plate. The cells were transiently transfected with a 1:1:1 mass ratio of the dCas9 plasmid, MS2-P65-HSF1 effector plasmid and the sgRNA plasmid targeting the HBG1 gene or an RFP control plasmid. A total of 1.6 μg plasmid DNA was transfected using Lipofectamine™ 2000 (Life Technologies™) according to manufacturer's protocol. Immediately after transfection, the cells were treated with an appropriate dose of the small molecule inhibitors for 48 hours following which the cells were harvested and RNA was extracted using the EZNA® Total RNA kit I (OMEGA) as per manufacturer's instructions. 1 μg total cellular RNA was used to perform reverse transcription using the High-Capacity cDNA Reverse Transcription Kit (Applied Biosystems™) or the qScript® cDNA Synthesis Kit (QUANTABIO). qPCR reactions were performed to quantify RNA expression using the TaqMan™ probes (Life Technologies™ HBG1/HBG2: Hs00361131_g1 and ACTB: Hs01060665_g1) and TaqMan™ Fast Advanced Master Mix (Life Technologies™) in 5 μL multiplexed reactions and 384-well format using the LightCycler® 480 Instrument II (ROCHE). For each sample, six technical replicates were performed. Data were analyzed using the LightCycler® 480 software (ROCHE) by the ΔΔCt method: Ct values for the gene of interest (HBG1) were normalized to Ct values for the housekeeping gene (ACTB) and fold-changes in the expression level of the gene of interest were normalized to RFP-transfected control. The data are reported as mean S.E.M. for technical replicates.
For transcription activation experiments 250,000 cells/well were plated in a 12 well plate. […] Data were analyzed using the LightCycler® 480 software (ROCHE) by the ΔΔCt method: Ct values for the gene of interest (HBG1) were normalized to Ct values for the housekeeping gene (ACTB) and fold-changes in the expression level of the gene of interest were normalized to RFP-transfected control. […]

U2OS.eGFP.PEST cells = assay: Cell viability assay (ATP content) of U2OS.eGFP.PEST cells; format: cell-based, human; conditions: for cytotoxicity (ATP content) in secondary screen: 20 μM compounds, 48 h; for cellular ATP-levels: U2OS cells, up to 20 μM, 24 h
Protocol: FIG. 14—Cell viability assay (ATP content) of U2OS.eGPF.PEST cells in the presence of compounds. Measurement of ATP content of U2OS.eGFP.PEST cells upon incubating with 20 μM compounds for 48 h. Error bars represent ±S.D. from technical replicates (n=3).
FIG. 22—Cell viability assay (ATP content) of U2OS.eGFP.PEST cells in the presence of compounds. Measurement ATP content of U2OS.eGFP.PEST cells upon incubating with BRD7087 and BRD5779 (5-20 μM) for 24 h. Error bars represent ±S.D. from technical replicates (n=3).
FIG. 58. Cell viability assay (ATP content) of U2OS.eGFP.PEST cells in the presence of compounds. Measurement of ATP content of U2OS.eGFP.PEST cells upon incubating with 20 μM compound for 48 h. Error bars represent±S.D. from technical replicates (n=3).
FIG. 66. Cell viability assay (ATP content) of U2OS.eGFP.PEST cells in the presence of compounds. Measurement of ATP content of U2OS.eGFP.PEST cells upon incubating with BRD7087 and BRD5779 (5-20 μM) for 24 h. Error bars represent ±S.D. from technical replicates (n=3).

Row | Structure (SMILES) | inhibition of the HBG1 transcriptional activation (dCas9) | cytotoxicity (ATP content) in secondary screen (U2OS.eGFP.PEST cells) | cellular ATP-levels (U2OS.eGFP.PEST cells) | inhibition of transcriptional activation (dCas9; 10 μM)
1 | COc1ccc(-c2ccc3c(c2)[C@H]2[C@H](CCN2Cc2ccncc2)[C@@H](CO)N3)cc1 [BRD5779, ((3aR,4S,9bR)-8-(4-Methoxyphenyl)-1-(pyridin-4-ylmethyl)-2,3,3a,4,5,9b-hexahydro-1H-pyrrolo[3,2-c]quinolin-4-yl)methanol] | dose-dependent inhibition | non-toxic | did not significantly alter | –
2 | OC[C@H]1Nc2ccc(-c3cccc(F)c3)cc2[C@H]2[C@@H]1CCN2Cc1ccncc1 [BRD7087, ((3aR,4S,9bR)-8-(3-Fluorophenyl)-1-(pyridin-4-ylmethyl)-2,3,3a,4,5,9b-hexahydro-1H-pyrrolo[3,2-c]quinolin-4-yl)methanol] | dose-dependent inhibition | non-toxic | did not significantly alter | > 60%
